According to ChEMBL document CHEMBL4837198, “Design, synthesis and biological evaluation of 1H-indazole derivatives as novel ASK1 inhibitors” (Eur J Med Chem, 2021):
Activity calls are given as the source filed them. The rule behind the calls is not given here.

What was measured:
[1] = molecular target: T1, Mitogen-activated protein kinase kinase kinase 5 (Homo sapiens, UniProt Q99683); experiment: Inhibition of human full length recombinant ASK1 using STK-Substrate-3 biotin as substrate in presence of ATP measured after 2 hrs by […] kinase assay
T1 sequence (Q99683 whole entry): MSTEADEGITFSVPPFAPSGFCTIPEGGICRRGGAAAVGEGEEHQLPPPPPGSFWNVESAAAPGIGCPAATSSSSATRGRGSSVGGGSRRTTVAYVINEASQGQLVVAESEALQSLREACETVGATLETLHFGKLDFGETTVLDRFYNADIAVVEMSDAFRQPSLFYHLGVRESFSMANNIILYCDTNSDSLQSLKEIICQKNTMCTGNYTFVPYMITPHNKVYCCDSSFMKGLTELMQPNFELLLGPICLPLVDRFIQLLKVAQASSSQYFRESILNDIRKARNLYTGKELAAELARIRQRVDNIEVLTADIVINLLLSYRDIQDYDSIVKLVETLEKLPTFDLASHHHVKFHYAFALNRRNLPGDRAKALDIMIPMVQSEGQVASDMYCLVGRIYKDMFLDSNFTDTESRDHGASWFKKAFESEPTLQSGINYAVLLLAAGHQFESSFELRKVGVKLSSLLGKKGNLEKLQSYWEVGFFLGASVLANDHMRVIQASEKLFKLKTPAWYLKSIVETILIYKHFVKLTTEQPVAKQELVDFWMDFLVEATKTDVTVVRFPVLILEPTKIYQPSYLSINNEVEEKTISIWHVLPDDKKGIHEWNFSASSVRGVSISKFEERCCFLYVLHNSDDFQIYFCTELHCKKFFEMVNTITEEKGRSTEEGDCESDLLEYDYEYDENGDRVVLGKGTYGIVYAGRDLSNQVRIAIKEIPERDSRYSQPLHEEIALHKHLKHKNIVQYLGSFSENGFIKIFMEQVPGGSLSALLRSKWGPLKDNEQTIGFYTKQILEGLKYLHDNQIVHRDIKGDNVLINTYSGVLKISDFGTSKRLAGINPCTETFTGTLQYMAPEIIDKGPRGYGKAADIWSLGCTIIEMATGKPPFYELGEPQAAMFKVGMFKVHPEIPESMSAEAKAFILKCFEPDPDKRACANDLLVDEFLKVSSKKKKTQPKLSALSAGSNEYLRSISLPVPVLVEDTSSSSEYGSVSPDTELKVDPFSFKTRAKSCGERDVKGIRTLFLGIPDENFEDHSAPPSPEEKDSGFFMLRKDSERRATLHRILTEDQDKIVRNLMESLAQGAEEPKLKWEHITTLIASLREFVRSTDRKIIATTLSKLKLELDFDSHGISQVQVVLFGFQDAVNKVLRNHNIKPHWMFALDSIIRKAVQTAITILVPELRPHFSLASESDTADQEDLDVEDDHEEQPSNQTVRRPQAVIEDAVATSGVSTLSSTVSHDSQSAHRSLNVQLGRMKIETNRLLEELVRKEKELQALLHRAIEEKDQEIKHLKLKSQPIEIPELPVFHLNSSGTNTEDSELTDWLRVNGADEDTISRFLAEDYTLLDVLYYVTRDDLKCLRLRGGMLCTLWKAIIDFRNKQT

[2] = molecular target: T1, Mitogen-activated protein kinase kinase kinase 5; experiment: Inhibition of ASK1 in human HEK293 cells transfected with AP1 assessed as inhibition of AP1-induced firefly luciferase activity preincubated for 1 hr followed by PMA stimulation and measured after 6 hrs by luciferase reporter assay; type: cell-based
HT-29 [3] = experiment: Induction cell survival in TNFalpha-induced human HT-29 cells at 10 uM pretreated for 24 hrs followed by TNFalpha stimulation measured after 2 hrs by CCK8 assay; type: functional, cell-based
HT-29 [4] = experiment: Cytotoxicity against human HT-29 cells assessed as cell survival at 25 uM incubated for 24 hrs by CCK8 assay; type: cell-based; settings: ht-29, 24 h
HT-29 [5] = experiment: Antiinflammatory activity in human HT-29 cells assessed as suppression of […]-stimulated p-ASK1 expression by Western blot analysis; type: functional, cell-based
HT-29 [6] = experiment: Antiinflammatory activity in human HT-29 cells assessed as suppression of […]-stimulated p-P38 expression by Western blot analysis; type: functional, cell-based
HT-29 [7] = experiment: Antiinflammatory activity in human HT-29 cells assessed as suppression of […]-stimulated p-JNK expression by Western blot analysis; type: functional, cell-based
HT-29 [8] = experiment: Antiapoptotic activity against in human HT-29 cells assessed as inhibition of TNFalpha-induced upregulation of Bax expression by Western blot analysis; type: functional, cell-based
HT-29 [9] = experiment: Antiapoptotic activity against in human HT-29 cells assessed as inhibition of TNFalpha-induced down regulation of Bcl2 expression by Western blot analysis; type: functional, cell-based
HT-29 [10] = experiment: Antiapoptotic activity against in human HT-29 cells assessed as inhibition of TNFalpha-induced Bax/ Bcl2 ratio by Western blot analysis; type: functional, cell-based
HT-29 [11] = experiment: Antiapoptotic activity against in human HT-29 cells assessed as inhibition of TNFalpha-induced caspase 3 activity by Western blot analysis; type: functional, cell-based

Structure (SMILES): c1cc(-c2n[nH]c3ccc(-c4nncn4C4CCC4)cc23)cc(-n2cnc(C3CC3)c2)c1
- IC50 [1]: 0.07 µM
- IC50 [2]: 7.28 µM

Structure (SMILES): CC(C)n1cnnc1-c1ccc2[nH]nc(-c3cccc(C(=O)NC4CC4)c3)c2c1
- IC50 [1]: 0.271 µM

Structure (SMILES): CC(C)n1cnnc1-c1ccc2[nH]nc(-c3cc(N4CCOCC4)cc(-n4cnc(C5CC5)c4)c3)c2c1
- IC50 [1]: 0.0751 µM

Structure (SMILES): CC(C)n1cnnc1-c1ccc2[nH]nc(-c3cccc(C(=O)Nc4cnn(C)c4)c3)c2c1
- IC50 [1]: 0.144 µM

Structure (SMILES): CC(C)n1cnnc1-c1ccc2[nH]nc(-c3ccc(N4CCOCC4)c(-n4cnc(C5CC5)c4)c3)c2c1
- IC50 [1]: 0.0318 µM
- IC50 [2]: 11.6 µM

Structure (SMILES): CC(C)n1cnnc1-c1ccc2[nH]nc(-c3cccc(S(C)(=O)=O)c3)c2c1
- IC50 [1]: 0.733 µM

Structure (SMILES): CCS(=O)(=O)Nc1cccc(-c2n[nH]c3ccc(-c4nncn4C(C)C)cc23)c1
- IC50 [1]: 0.0198 µM

Structure (SMILES): Cc1ccc(-c2n[nH]c3ccc(-c4nncn4C(C)C)cc23)cc1-n1cnc(C2CC2)c1
- IC50 [1]: 0.0569 µM
- IC50 [2]: 8.73 µM

Structure (SMILES): CCOC(C)n1cc(-c2cccc(-c3n[nH]c4ccc(-c5nncn5C(C)C)cc34)c2)cn1 (stereo unspecified)
- IC50 [1]: 0.0299 µM
- IC50 [2]: 4.46 µM
- Activity (HT-29 [3]): Active
- Activity (HT-29 [4]): Non-Toxic
- Activity (HT-29 [5]): Active
- Activity (HT-29 [6]): Active
- Activity (HT-29 [7]): Active
- Activity (HT-29 [8]): Active
- Activity (HT-29 [9]): Active
- Activity (HT-29 [10]): Active
- Activity (HT-29 [11]): Active

Structure (SMILES): Cc1cc(F)c(C(=O)Nc2cccc(-c3nncn3C(C)C)n2)cc1-n1cnc(C2CC2)c1 [SELONSERTIB]
- Activity (HT-29 [3]): Active
- Activity (HT-29 [4]): Non-Toxic
- Activity (HT-29 [5]): Active
- Activity (HT-29 [6]): Active
- Activity (HT-29 [7]): Active
- Activity (HT-29 [8]): Active
- Activity (HT-29 [9]): Active
- Activity (HT-29 [10]): Active
- Activity (HT-29 [11]): Active

Structure (SMILES): CC(C)n1cnnc1-c1ccc2[nH]nc(-c3cccc(C(N)=O)c3)c2c1
- IC50 [1]: 0.0742 µM

Structure (SMILES): CC(C)n1cnnc1-c1ccc2[nH]nc(-c3cccc(-c4cccnc4)c3)c2c1
- IC50 [1]: 0.283 µM

Structure (SMILES): O=C(Nc1cccc(-c2n[nH]c3ccc(-c4nnc[nH]4)cc23)c1)c1ccc(C(F)(F)F)cc1
- IC50 [1]: 0.532 µM

Structure (SMILES): c1cc(-c2n[nH]c3ccc(-c4nncn4C4CCCCC4)cc23)cc(-n2cnc(C3CC3)c2)c1
- IC50 [1]: 0.243 µM

Structure (SMILES): COCCNC(=O)c1cccc(-c2n[nH]c3ccc(-c4nncn4C(C)C)cc23)c1
- IC50 [1]: 0.245 µM

Structure (SMILES): COc1ccc(-n2cnc(C3CC3)c2)cc1-c1n[nH]c2ccc(-c3nncn3C(C)C)cc12
- IC50 [1]: 0.27 µM

Structure (SMILES): CC(C)n1cnnc1-c1ccc2[nH]nc(-c3cccc(NC(=O)c4ccc(C(F)(F)F)cc4)c3)c2c1
- IC50 [1]: 0.197 µM

Structure (SMILES): COCn1cc(-c2cccc(-c3n[nH]c4ccc(-c5nncn5C(C)C)cc34)c2)cn1
- IC50 [1]: 0.0269 µM
- IC50 [2]: 9.81 µM

Structure (SMILES): CC(C)n1cnnc1-c1ccc2[nH]nc(-c3cccc(-n4cnc(C5CC5)n4)c3)c2c1
- IC50 [1]: 0.037 µM
- IC50 [2]: 8.88 µM

Structure (SMILES): c1cc(-c2n[nH]c3ccc(-c4nncn4C4CC4)cc23)cc(-n2cnc(C3CC3)c2)c1
- IC50 [1]: 0.05 µM
- IC50 [2]: 7.04 µM

Structure (SMILES): COc1cc(-c2n[nH]c3ccc(-c4nncn4C(C)C)cc23)cc(-n2cnc(C3CC3)c2)c1
- IC50 [1]: 0.0486 µM
- IC50 [2]: 11.3 µM

Structure (SMILES): c1cc(-c2n[nH]c3ccc(-c4cn[nH]c4)cc23)cc(-n2cnc(C3CC3)c2)c1
- IC50 [1]: 0.275 µM

Structure (SMILES): CCOC(C)n1cc(-c2cncc(-c3n[nH]c4ccc(-c5nncn5C(C)C)cc34)c2)cn1 (stereo unspecified)
- IC50 [1]: 0.277 µM

Structure (SMILES): CC(C)n1cnnc1-c1ccc2[nH]nc(-c3cccc(-c4ccnn4C)c3)c2c1
- IC50 [1]: 0.855 µM

Structure (SMILES): CC(C)n1cnnc1-c1ccc2[nH]nc(-c3cccc(-c4cnn(C)c4)c3)c2c1
- IC50 [1]: 0.0636 µM
- IC50 [2]: 8.33 µM

Structure (SMILES): CC(C)n1cnnc1-c1ccc2[nH]nc(-c3cccc(-c4cnn(C5CCOCC5)c4)c3)c2c1
- IC50 [1]: 0.0501 µM
- IC50 [2]: 12.1 µM

Structure (SMILES): c1cc(-c2n[nH]c3ccc(-c4nncn4C4CCCC4)cc23)cc(-n2cnc(C3CC3)c2)c1
- IC50 [1]: 0.0541 µM
- IC50 [2]: 5.5 µM

Structure (SMILES): CC(C)n1cnnc1-c1ccc2[nH]nc(-c3cccc(-n4cnc(C5CC5)c4)c3)c2c1
- IC50 [1]: 0.0622 µM
